Results as given in patent US20060275520A1, “White peony extract for improving the duration and quality of sleep” (Access Business Group International LLC, priority 2005, published 2006).

Molecular target: GABA-A receptors
Assay: GABA-A Agonist binding assay (NovaScreen), [3H]-GABA displacement
Design: species or system bovine
Conditions: converted from μg/ml; read-out: IC50 for paeoniflorin converted to molarity
Description: These GABA-A Agonist assays were conducted by NovaScreen Biosciences Corporation (Hanover, Md.) and are described in Falch E., et al., 1986. […] 47(3): 898-903 and Enna S. J., et al., 1977.
(§1) In particular, the GABA-A Agonist binding assays use bovine cerebellar membranes as the source of GABA-A receptors. GABA-A, radio labeled with tritium (^3H), is used as both the reference compound and positive control.
The bovine cerebellar membranes are exposed to both [^3H]-GABA and extracts of the desired test substance. In this instance, the bovine cerebellar membranes were exposed to: six extracts of white peony root at concentrations of 0.01, 0.03, 0.1, 0.3, 1, 3, and 10 μg/ml. The GABA-A Agonist assay measures how much radio labeled GABA-A binds to the GABA-A receptors present in the bovine cerebellar membranes.
The results of the GABA-A Agonist binding assays are shown in FIGS. 19-24 and are expressed below in Table I as IC50 in μg/ml.
as §1, with “control. The bovine cerebellar membranes are exposed to both [^3H]-GABA and extracts of the desired test substance. […]” for “control.”

Molecule `C[C@@]12C[C@@]3(O)O[C@@H](O1)[C@]1(COC(=O)c4ccccc4)[C@H]3C[C@@]12O[C@@H]1O[C@H](CO)[C@@H](O)[C@H](O)[C@H]1O` [paeoniflorin] has an IC50 of roughly 625 nM.
